For this test, the target named is T1, cannabinoid CB1 (Homo sapiens, UniProt P21554).
T1 construct: purchased
T1 sequence (P21554 whole entry): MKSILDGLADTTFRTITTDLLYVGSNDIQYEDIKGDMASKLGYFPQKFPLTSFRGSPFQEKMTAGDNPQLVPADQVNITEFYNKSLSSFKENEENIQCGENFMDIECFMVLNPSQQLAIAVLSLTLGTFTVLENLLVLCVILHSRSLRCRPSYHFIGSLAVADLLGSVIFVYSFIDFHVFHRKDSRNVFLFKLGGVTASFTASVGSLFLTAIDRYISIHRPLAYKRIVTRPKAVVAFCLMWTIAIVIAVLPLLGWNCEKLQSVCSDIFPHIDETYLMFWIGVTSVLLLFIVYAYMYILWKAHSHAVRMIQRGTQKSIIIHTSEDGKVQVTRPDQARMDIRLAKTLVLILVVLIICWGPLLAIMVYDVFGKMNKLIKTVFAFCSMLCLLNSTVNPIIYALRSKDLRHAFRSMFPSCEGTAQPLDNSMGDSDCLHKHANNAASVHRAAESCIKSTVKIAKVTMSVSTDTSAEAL
The experiment in a line: Competition binding assay for cannabinoid CB1 affinity (3H-CP55,940 displacement). The conditions noted are these: membranes from cells expressing the receptor, 0.5 nM 3H-CP55,940; Ki by Cheng-Prusoff; read-out: Ki values as measured in the above assay. As for the experimental part: Non-specific binding was defined in the presence of 10 μM CP55,940. For saturation studies, concentrations of ^3H—CP55,940 ranging from 0.1-5 nM were incubated with membranes in the presence and absence of 10 μM CP55,940. Assays were terminated after incubation for 1½ hours by rapid filtration onto 0.3% polyethylenamine treated GF/C filterplates using a BRANDEL cell harvester. The plates were dried and MICROSCINT scintillation cocktail was added, after which the bound radioactivity was quantified using a TOPCOUNT scintillation counter.
The dissociation constant (Kd) of ^3H—CP55,940 at the CB1 and CB2 receptor were determined by plotting specific binding at each concentration of radioligand, and analysis by non-linear regression. For competition studies, the concentration of each drug that inhibited 50 percent of ^3H—CP55,940 binding (IC50) was determined by non-linear regression analysis of the radioligand displacement curves. Affinity constants (K) were calculated using the equation derived by Cheng and Prusoff (1973), defined as: IC50/1+[conc. ligand/Kd].
On to `O=S(=O)(NCCC1CN(c2ccc(Cl)cc2)C(c2ccc(Cl)cc2Cl)CO1)c1cccnc1` (stereo not shown) [Example 6], for which the inhibitory constant (Ki) – broadly, a dissociation constant, usually derived from enzyme kinetics or from competition with a known ligand – was no more than 25 nM.

Turning to `CC(C)(C)OC(=O)CC1OCC(c2ccc(Cl)cc2Cl)N(c2ccc(Cl)cc2)C1=O` (stereo not shown) [Example 2], the Ki is no more than 800 nM.

As to `Fc1ccc(CC2CN(c3ccc(Cl)cc3)C(c3ccc(Cl)cc3Cl)CO2)cc1F` (stereo not shown) [Example 1], the Ki was no more than 100 nM.

For `NCCC1CN(c2ccc(Cl)cc2)C(c2ccc(Cl)cc2Cl)CO1` (stereo not shown) [Example 5], the inhibition constant (Ki) is no more than 800 nM.

Values taken from patent publication US20100197564A1, “DIARYL MORPHOLINES AS CB1 MODULATORS” (Schering Corporation, priority 2007, published 2010).
